± gives the expanded uncertainty stated by the source.
Key:
[1] = 101.33 kPa, Liquid
[2] = refractive index (Na D-line) (dimensionless); conditions: 101.33 kPa, Liquid, Standard Abbe refractometry

OCCO [1,2-ethanediol]
mass density ([1]; 293.15 K): 1115.52 ± 0.71 kg/m3
refractive index ([2]; 293.15 K): 1.43184 ± 0.0007

CC(O)CO (configuration not stated) [1,2-propanediol]
mass density ([1]; 293.15 K): 1032.83 ± 0.48 kg/m3
refractive index ([2]; 293.15 K): 1.43143 ± 0.0007

C=C(C)C1CC=C(C)CC1 (configuration not stated) [1-methyl-4-(1-methylethenyl)cyclohexene]
mass density ([1]; 294 K): 840.24 ± 2.8 kg/m3
refractive index ([2]; 292 K): 1.47247 ± 0.0009

C=CC(C)(O)CCC=C(C)C (configuration not stated) [3,7-dimethyl-1,6-octadien-3-ol]
mass density ([1]; 288 K): 870.04 ± 2.7 kg/m3
refractive index ([2]; 293.15 K): 1.46272 ± 0.0009

OCCOCCO [diethylene glycol]
mass density ([1]; 288 K): 1119.74 ± 0.72 kg/m3
refractive index ([2]; 293.15 K): 1.44724 ± 0.0007

OCCOCCOCCO [triethylene glycol]
mass density ([1]; 288 K): 1127.43 ± 0.74 kg/m3
refractive index ([2]; 293.15 K): 1.45314 ± 0.0007
